From patent US20200385371A1 (Propellon Therapeutics Inc., priority 2017, published 2020) come the findings set out here.

Experiment [1] addresses T1, WDR5 (Homo sapiens, UniProt P61964). Kind of experiment: Surface Plasmon Resonance (SPR) assay. It counts as binding. The arrangement: Full length WDR5 with an N-terminal His tag and C-terminal AviTag; His tag (N); made in house; host or cells: E. coli. On the procedure:
Exemplary compounds of the application were dissolved in 100% DMSO at 10 mM, assayed fresh, and then stored at −20° C. for repeat studies and other experiments. Full length WDR5 with an N-terminal His tag and C-terminal AviTag (Avidity Inc.) was expressed in E. coli with coexpression of BirA to biotin label the protein in vivo. Purification was via Ni-NTA.
SPR studies were performed using a Biacore™ T200 instrument (GE Health Sciences Inc.). Biotinylated WDR5 protein (approximately 3000RU) was stably captured to streptavidin coupled SA chips according to the manufacture's protocol (GE Health Sciences Inc.). The running buffer used was HBS-EP (20 mM Hepes pH 7.4, 150 mM NaCl, 3 mM EDTA, 0.05% P-20) plus 5% DMSO with a flow rate of 40 μl/min. For SPR analysis, 5 different concentrations of each exemplary compound of the application were sprayed into 96 or 384 well plates using an HP D300 digital dispenser. The concentration ranged from about 195 nM to about 12 nM in a two-fold series. […] Curve fitting and KD calculations were performed with the Biacore T200 Evalutation software (GE Health Sciences Inc).

The target in experiment [2] is T1, WDR5. Kind of experiment: Fluorescence Polarization (FP) binding assay. On the procedure:
H3 (1-15) ([…]), and 9-Ala-FAM ((Ac)-[…]-(Ahx-Ahx)-K(5,6-FAM)) (where Ahx represents 6 amino hexanoic acid linkers) peptides for WDR5 were synthesized, N-terminal-labeled with isothiocyanate-fluorescein, and purified by Tufts University Core Services (Boston, Mass.). Compound binding assays were performed at a constant labeled peptide concentration of 30 or 20 nM for H3 (1-15) and 9-Ala-FAM respectively. WDR5 concentrations of 0.3 μM for H3 (1-15) and 0.05 μM for 9-Ala-FAM were used. For both the H3 (1-15) and 9-Ala-FAM peptides, 80 mM sodium phosphate buffer (pH 6.5), 20 mM KCl, and 0.008% Triton X-100 was used. For the H3 (1-15) peptide, FP assays were measured in 10 μl aliquots in 384-well Axygen plates using a Synergy 4 microplate reader (BioTek) with an excitation wavelength of 485 nm and emission wavelength of 528 nm. For the 9-Ala-FAM peptide, FP assays were measured in 125 μl aliquots in 96 well Microfluor plates using a ViewLux instrument (Perkin Elmer) with an excitation wavelength of 480 nm and emission wavelength of 540 nm. To determine Kdsp values, the data were fit to a hyperbolic function using Sigma Plot software (Systat Software). The Kdisp values represent the average of quadruplicate measurements.
In general terms: In fluorescence polarisation assays a small probe gives low polarisation when free and higher when bound to something large.

Where [3] appears, read: Table 2, effect of difluoro substitution, read-out: KD (SPR).

Where two headings read alike, the source gives them in different places.

As usually defined, the Kd is a measure of binding affinity in units of concentration. In the case of `C[C@@H]1CN(c2ncc(-c3ccc(N4C[C@@H](C)N(C)[C@@H](C)C4)c(NC(=O)c4c[nH]c(=O)cc4C(F)(F)F)c3F)cn2)C[C@H](C)O1` [reference compound], the Kd in experiment [1] (setting [3]) came out at 1.8 nM.
In general, IC50 refers to the concentration that gives 50% inhibition. Regarding `C[C@@H]1CN(c2ncc(-c3c(F)cc(N4C[C@@H](C)N(C)[C@@H](C)C4)c(NC(=O)c4cn(C)c(=O)cc4C(F)(F)F)c3F)cn2)CCO1` [Example 17, N-(2,4-difluoro-3-(2-((R)-2-methylmorpholino)pyrimidin-5-yl)-6-((3S,5R)-3,4,5-trimethylpiperazin-1-yl)phenyl)-1-methyl-6-oxo-4-(trifluoromethyl)-1,6-dihydropyridine-3-carboxamide formic acid], the Kd in experiment [1] (read-out: SPR Kd) amounted to 1.75 nM. For the same compound, in experiment [2], the IC50 stood at 10.1 nM.
With `C[C@@H]1CN(c2cc(F)c(-c3ccc(OCC4CC4)nc3)c(F)c2NC(=O)c2c[nH]c(=O)cc2C(F)(F)F)C[C@H](C)N1C` [Example 1, N-(3-(6-(cycloproylmethoxy)pyridin-3-yl)-2,4-difluoro-6-((3S,5R)-3,4,5-trimethylpiperazin-1-yl)phenyl)-6-oxo-4-(trifluoromethyl)-1,6-dihydropyridine-3-carboxamide], the Kd in experiment [1] (read-out: SPR Kd) was found to be 0.59 nM.
As to `C[C@@H]1CN(c2cc(F)c(C3=CCCN(C(=O)OC4(C)CCC4)C3)c(F)c2NC(=O)c2c[nH]c(=O)cc2C(F)(F)F)C[C@H](C)N1C` [Example 14, 1-Methylcyclobutyl 5-(2,6-difluoro-3-(6-oxo-4-(trifluoromethyl)-1,6-dihydropyridine-3-carboxamido)-4-((3S,5R)-3,4,5-trimethylpiperazin-1-yl)phenyl)-3,6-dihydropyridine-1(2H)-carboxylate], in experiment [1] (read-out: SPR Kd), the Kd was determined as 1.88 nM. The IC50 in experiment [2] was found to be 10.2 nM.
As for `C[C@@H]1CN(c2cc(F)c(-c3cnc(N4CCO[C@@H](C)C4)nc3)c(F)c2NC(=O)c2cn(C)c(=O)cc2C(F)(F)F)C[C@H](C)N1C` [Example 12, N-(2,4-difluoro-3-(2-((S)-2-methylmorpholino)pyrimidin-5-yl)-6-((3S,5R)-3,4,5-trimethylpiperazin-1-yl)phenyl)-1-methyl-6-oxo-4-(trifluoromethyl)-1,6-dihydropyridine-3-carboxamide formic Acid], in experiment [1] (read-out: SPR Kd), the Kd turned out to be 1.42 nM. For the same compound, in experiment [2], the IC50 is 24.6 nM.
For `C[C@@H]1CN(c2cc(F)c(C3=CCCN(C(=O)C(C)(C)C)C3)c(F)c2NC(=O)c2c[nH]c(=O)cc2C(F)(F)F)C[C@H](C)N1C` [Example 19, N-(2,4-difluoro-3-(1-pivaloyl-1,2,5,6-tetrahydropyridin-3-yl)-6-((3S,5R)-3,4,5-trimethylpiperazin-1-yl)phenyl)-6-oxo-4-(trifluoromethyl)-1,6-dihydropyridine-3-carboxamide], in experiment [1] (read-out: SPR Kd), the Kd came to 5.31 nM. Further, the IC50 in experiment [2] was 31.6 nM.
On to `C[C@@H]1CN(c2ncc(-c3ccc(N4C[C@@H](C)N(C)[C@@H](C)C4)c(NC(=O)c4c[nH]c(=O)cc4C(F)(F)F)c3)cn2)C[C@H](C)O1` [reference compound], for which the Kd in experiment [1] (setting [3]) was 2.9 nM.
For the compound `C[C@@H]1CN(c2cc(F)c(C3=CCCN(c4ncccn4)C3)c(F)c2NC(=O)c2c[nH]c(=O)cc2C(F)F)C[C@H](C)N1C` [Example 21, N-(2,4-difluoro-3-(1-(pyrimidin-2-yl)-1,2,5,6-tetrahydropyridin-3-yl)-6-((3S,5R)-3,4,5-trimethylpiperazin-1-yl)phenyl)-4-(difluoromethyl)-6-oxo-1,6-dihydropyridine-3-carboxamide], the Kd in experiment [1] (read-out: SPR Kd) amounted to 4.5 nM. In addition, the IC50 in experiment [2] was found to be 37.1 nM.
As to `C[C@@H]1CN(c2cc(F)c(-c3ccc(OCC4CC4)cc3)c(F)c2NC(=O)c2c[nH]c(=O)cc2C(F)(F)F)C[C@H](C)N1C` [Example 7, N-(4′-(cyclopropylmethoxy)-2,6-difluoro-4-((3S,5R)-3,4,5-trimethylpiperazin-1-yl)-[1,1′-biphenyl]-3-yl)-6-oxo-4-(trifluoromethyl)-1,6-dihydropyridine-3-carboxamide], in experiment [2], the IC50 was determined as 17.9 nM.
With `C[C@@H]1CN(c2ncc(-c3c(F)cc(N4C[C@@H](C)N(C)[C@@H](C)C4)c(NC(=O)c4ccc(F)cc4C(F)(F)F)c3F)cn2)CCO1` [Example 18, N-(2,4-difluoro-3-(2-((R)-2-methylmorpholino)pyrimidin-5-yl)-6-((3S,5R)-3,4,5-trimethylpiperazin-1-yl)phenyl)-4-fluoro-2-(trifluoromethyl)benzamide formic acid], the Kd in experiment [1] (read-out: SPR Kd) is 1.71 nM. For the same compound, in experiment [2], the concentration for half-maximal inhibition (IC50) amounted to 11 nM.
As to `C[C@@H]1CN(c2cc(F)c(-c3ccnc(OCC4CC4)c3)c(F)c2NC(=O)c2c[nH]c(=O)cc2C(F)(F)F)C[C@H](C)N1C` [Example 3, N-(3-(2-(cyclopropylmethoxy)pyridin-4-yl)-2,4-difluoro-6-((3S,5R)-3,4,5-trimethylpiperazin-1-yl)phenyl)-6-oxo-4-(trifluoromethyl)-1,6-dihydropyridine-3-carboxamide], in experiment [1] (read-out: SPR Kd), the Kd came out at 3.39 nM. For the same compound, the IC50 in experiment [2] is 26.6 nM.
`COCCOc1ccc(-c2c(F)cc(N3C[C@@H](C)N(C)[C@@H](C)C3)c(NC(=O)c3c[nH]c(=O)cc3C(F)(F)F)c2F)cn1` [Example 6, N-(2,4-difluoro-3-(6-(2-methoxyethoxy)pyridin-3-yl)-6-((3S,5R)-3,4,5-trimethylpiperazin-1-yl)phenyl)-6-oxo-4-(trifluoromethyl)-1,6-dihydropyridine-3-carboxamide]: the Kd in experiment [1] (read-out: SPR Kd) is 2.83 nM. The IC50 in experiment [2] was 32.9 nM.
With `C[C@@H]1CN(c2cc(F)c(C3=CCCN(c4ncccn4)C3)c(F)c2NC(=O)c2c[nH]c(=O)cc2C(F)(F)F)C[C@H](C)N1C` [Example 15, N-(2,4-difluoro-3-(1-(pyrimidin-2-yl)-1,2,5,6-tetrahydropyridin-3-yl)-6-((3S,5R)-3,4,5-trimethylpiperazin-1-yl)phenyl)-6-oxo-4-(trifluoromethyl)-1,6-dihydropyridine-3-carboxamide], the Kd in experiment [1] (read-out: SPR Kd) was found to be 1.69 nM. Also, the IC50 in experiment [2] was determined as 21.1 nM.
As for `C[C@@H]1CN(c2cc(F)c(-c3ccc(N4CCOCC4)cc3)c(F)c2NC(=O)c2c[nH]c(=O)cc2C(F)(F)F)C[C@H](C)N1C` [Example 5, N-(2,6-difluoro-4′-morpholino-4-((3S,5R)-3,4,5-trimethylpiperazin-1-yl)-[1,1′-biphenyl]-3-yl)-6-oxo-4-(trifluoromethyl)-1,6-dihydropyridine-3-carboxamide], the Kd in experiment [1] (read-out: SPR Kd) was found to be 3.55 nM. Also, the concentration for half-maximal inhibition (IC50) in experiment [2] worked out at 32.2 nM.
`CC(C)OC(=O)N1CCC=C(c2c(F)cc(N3C[C@@H](C)N(C)[C@@H](C)C3)c(NC(=O)c3c[nH]c(=O)cc3C(F)F)c2F)C1` [Example 23, Isopropyl 5-(3-(4-(difluoromethyl)-6-oxo-1,6-dihydropyridine-3-carboxamido)-2,6-difluoro-4-((3S,5R)-3,4,5-trimethylpiperazin-1-yl)phenyl)-3,6-dihydropyridine-1(2H)-carboxylate]: the Kd in experiment [1] (read-out: SPR Kd) turned out to be 2.83 nM. Also, the IC50 in experiment [2] was determined as 31.4 nM.
For the compound `C[C@@H]1CN(c2cc(F)c(C3=CCCN(C(=O)OC4(C)CCC4)C3)c(F)c2NC(=O)c2c[nH]c(=O)cc2C(F)F)C[C@H](C)N1C` [Example 22, 1-Methylcyclobutyl 5-(3-(4-(difluoromethyl)-6-oxo-1,6-dihydropyridine-3-carboxamido)-2,6-difluoro-4-((3S,5R)-3,4,5-trimethylpiperazin-1-yl)phenyl)-3,6-dihydropyridine-1(2H)-carboxylate], the equilibrium dissociation constant (Kd) in experiment [1] (read-out: SPR Kd) was 1.74 nM. For the same compound, the IC50 in experiment [2] turned out to be 23 nM.
For `C[C@@H]1CN(c2cc(F)c(-c3ccc(N4CCOCC4)nc3)c(F)c2NC(=O)c2c[nH]c(=O)cc2C(F)(F)F)C[C@H](C)N1C` [Example 4, N-(2,4-difluoro-3-(6-morpholinopyridin-3-yl)-6-((3S,5R)-3,4,5-trimethylpiperazin-1-yl)phenyl)-6-oxo-4-(trifluoromethyl)-1,6-dihydropyridine-3-carboxamide], the Kd in experiment [1] (read-out: SPR Kd) amounted to 2.02 nM. In addition, the IC50 in experiment [2] worked out at 31.8 nM.
`C[C@@H]1CN(c2ncc(-c3cc(F)c(N4C[C@@H](C)N(C)[C@@H](C)C4)c(NC(=O)c4c[nH]c(=O)cc4C(F)(F)F)c3)cn2)C[C@H](C)O1` [reference compound]: the Kd in experiment [1] (setting [3]) amounted to 48 nM.
